Structures are written as SMILES. Where a SMILES comes first, the peptide text is derived from it. Bridges are numbered along the chain shown (N, C = ends). [ ]: non-standard residue; d: D form. Bip = N[C@@H](Cc1ccc(-c2ccccc2)cc1)C(=O)O; Orn = NCCC[C@H](N)C(=O)O; Dab = NCC[C@H](N)C(=O)O; Dap = NC[C@H](N)C(=O)O

T1 sequence (Q15116 25-288): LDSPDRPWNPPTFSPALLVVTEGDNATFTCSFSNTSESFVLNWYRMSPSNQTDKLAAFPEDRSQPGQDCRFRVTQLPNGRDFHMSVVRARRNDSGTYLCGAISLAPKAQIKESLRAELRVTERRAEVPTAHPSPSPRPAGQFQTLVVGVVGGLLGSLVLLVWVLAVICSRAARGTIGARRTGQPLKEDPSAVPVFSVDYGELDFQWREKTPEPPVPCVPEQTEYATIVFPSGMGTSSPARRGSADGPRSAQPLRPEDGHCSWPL

One test has as its target T1, human PD-1 / PD-L1-Ig binding on Jurkat cell line over-expressing human PD-1 (Jurkat-PD-1) (Homo sapiens, UniProt Q15116).
T1 construct: expressed in transfected cells; host or cells: Jurkat
Description: Jurkat-PD-1 Cell Binding High-Content Screening Assay (CBA). The settings on record: Jurkat HPD1_PDL1 IC50, Jurkat-PD-1 cells, PE-labeled PD-L1-Ig 20 nM final. The class given is cell-based. An outline of the steps: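 Cell-bound PE-labeled PD-L1-Ig (20 nM final, 1 h) measured by high-content imaging after fixation and Hoechst 33342 counterstain. Compound was applied first for 2 h at 37° C. to Jurkat cells over-expressing human PD-1 in DMEM with 10% FCS.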
In turn, `CC(C)C[C@@H]1NC(=O)[C@H](Cc2c[nH]c3ccccc23)NC(=O)[C@H](CC(=O)O)NC(=O)[C@H](Cc2ccc(O)cc2)NC(=O)[C@H](Cc2ccccc2)NC(=O)CSC[C@@H](C(=O)NCC(N)=O)NC(=O)[C@H]([C@@H](C)O)NC(=O)[C@H](C(C)C)NC(=O)[C@H](CC(C)C)NC(=O)[C@H](CC(N)=O)NC(=O)[C@@H](C)NC(=O)[C@H](CCN)NC(=O)[C@H](C(C)C)NC(=O)[C@H](Cc2ccc(-c3ccccc3)cc2)NC1=O` [Compound 1099] ({CH2CO}-FYDWL[Bip]V[Dab][dA]NLVTCG-NH2; thioether N-14) gave an IC50 of 84.5 nM.

In turn, `CC(C)C[C@@H]1NC(=O)[C@H](Cc2c[nH]c3ccccc23)NC(=O)[C@H](CC(=O)O)NC(=O)[C@H](Cc2ccc(O)cc2)NC(=O)[C@H](Cc2ccccc2)NC(=O)CSC[C@@H](C(=O)NCC(N)=O)NC(=O)[C@H]([C@@H](C)O)NC(=O)[C@H](C(C)C)NC(=O)[C@H](CC(C)C)NC(=O)[C@H](CC(N)=O)NC(=O)[C@@H](C)NC(=O)[C@H](CCCN)NC(=O)[C@H](C(C)C)NC(=O)[C@H](Cc2ccc(-c3ccccc3)cc2)NC1=O` [Compound 1107] ({CH2CO}-FYDWL[Bip]V[Orn][dA]NLVTCG-NH2; thioether N-14) came in with a 50% inhibitory concentration (IC50) of 310 nM.

The same test, now with this note: Jurkat-PD-1 cells, PE-labeled PD-L1-Ig 20 nM final; read-out: Jurkat HPD1_PDL1 IC50.
For `CC(C)C[C@@H]1NC(=O)[C@H](Cc2c[nH]c3ccccc23)NC(=O)[C@H](CC(=O)O)NC(=O)[C@H](Cc2ccc(O)cc2)NC(=O)[C@H](Cc2ccccc2)NC(=O)CSC[C@@H](C(=O)N[C@@H](C)C(N)=O)NC(=O)[C@H]([C@@H](C)O)NC(=O)[C@H](C(C)C)NC(=O)[C@H](CC(C)C)NC(=O)[C@H](CC(N)=O)NC(=O)[C@@H](C)NC(=O)[C@H](CCCN)NC(=O)[C@H](C(C)C)NC(=O)[C@H](Cc2ccc(-c3ccccc3)cc2)NC1=O` [Compound 1092] ({CH2CO}-FYDWL[Bip]V[Orn][dA]NLVTCA-NH2; thioether N-14), the IC50 came out at 229 nM. Same read-out and setting: the result for `CC(C)C[C@@H]1NC(=O)[C@H](Cc2c[nH]c3ccccc23)NC(=O)[C@H](CC(=O)O)NC(=O)[C@H](Cc2ccc(O)cc2)NC(=O)[C@H](Cc2ccccc2)NC(=O)CSC[C@@H](C(=O)NCC(N)=O)NC(=O)[C@H](CO)NC(=O)[C@H](C(C)C)NC(=O)[C@H](CC(C)C)NC(=O)[C@H](CC(N)=O)NC(=O)[C@@H](C)NC(=O)[C@H](CCCN)NC(=O)[C@H](C(C)C)NC(=O)[C@H](Cc2ccc(-c3ccccc3)cc2)NC1=O` [Compound 1093] ({CH2CO}-FYDWL[Bip]V[Orn][dA]NLVSCG-NH2; thioether N-14) reads 120 nM.

As for `CC(C)C[C@@H]1NC(=O)[C@H](Cc2c[nH]c3ccccc23)NC(=O)[C@H](CC(=O)O)NC(=O)[C@H](Cc2ccc(O)cc2)NC(=O)[C@H](Cc2ccccc2)NC(=O)CSC[C@@H](C(=O)N[C@@H](C)C(N)=O)NC(=O)[C@H](CO)NC(=O)[C@H](C(C)C)NC(=O)[C@H](CC(C)C)NC(=O)[C@H](CCN)NC(=O)[C@@H](C)NC(=O)[C@H](CCCN)NC(=O)[C@H](C(C)C)NC(=O)[C@H](Cc2ccc(-c3ccccc3)cc2)NC1=O` [Compound 1095] ({CH2CO}-FYDWL[Bip]V[Orn][dA][Dab]LVSCA-NH2; thioether N-14), the IC50 worked out at 146 nM.

Regarding `CC(C)C[C@@H]1NC(=O)[C@H](Cc2c[nH]c3ccccc23)NC(=O)[C@H](CC(=O)O)NC(=O)[C@H](Cc2ccc(O)cc2)NC(=O)[C@H](Cc2ccccc2)NC(=O)CSC[C@@H](C(=O)NCC(N)=O)NC(=O)[C@H](CO)NC(=O)[C@H](C(C)C)NC(=O)[C@H](CC(C)C)NC(=O)[C@H](CCN)NC(=O)[C@@H](C)NC(=O)[C@H](CCCN)NC(=O)[C@H](C(C)C)NC(=O)[C@H](Cc2ccc(-c3ccccc3)cc2)NC1=O` [Compound 1096] ({CH2CO}-FYDWL[Bip]V[Orn][dA][Dab]LVSCG-NH2; thioether N-14), the IC50 is 68.8 nM. Still for that read-out and setting: the result for `CC(C)C[C@@H]1NC(=O)[C@H](Cc2c[nH]c3ccccc23)NC(=O)[C@H](CC(=O)O)NC(=O)[C@H](Cc2ccc(O)cc2)NC(=O)[C@H](Cc2ccccc2)NC(=O)CSC[C@@H](C(=O)N[C@@H](C)C(N)=O)NC(=O)[C@H]([C@@H](C)O)NC(=O)[C@H](C(C)C)NC(=O)[C@H](CC(C)C)NC(=O)[C@H](CCN)NC(=O)[C@@H](C)NC(=O)[C@H](CN)NC(=O)[C@H](C(C)C)NC(=O)[C@H](Cc2ccc(-c3ccccc3)cc2)NC1=O` [Compound 1097] ({CH2CO}-FYDWL[Bip]V[Dap][dA][Dab]LVTCA-NH2; thioether N-14) reads 132 nM. Same read-out and setting: the result for `CC(C)C[C@@H]1NC(=O)[C@H](Cc2c[nH]c3ccccc23)NC(=O)[C@H](CC(=O)O)NC(=O)[C@H](Cc2ccc(O)cc2)NC(=O)[C@H](Cc2ccccc2)NC(=O)CSC[C@@H](C(=O)NCC(N)=O)NC(=O)[C@H](CO)NC(=O)[C@H](C(C)C)NC(=O)[C@H](CC(C)C)NC(=O)[C@H](CCN)NC(=O)[C@@H](C)NC(=O)[C@H](CN)NC(=O)[C@H](C(C)C)NC(=O)[C@H](Cc2ccc(-c3ccccc3)cc2)NC1=O` [Compound 1098] ({CH2CO}-FYDWL[Bip]V[Dap][dA][Dab]LVSCG-NH2; thioether N-14) reads 115 nM.

For the compound `CC(C)C[C@@H]1NC(=O)[C@H](Cc2c[nH]c3ccccc23)NC(=O)[C@H](CC(=O)O)NC(=O)[C@H](Cc2ccc(O)cc2)NC(=O)[C@H](Cc2ccccc2)NC(=O)CSC[C@@H](C(=O)N[C@@H](C)C(N)=O)NC(=O)[C@H](CO)NC(=O)[C@H](C(C)C)NC(=O)[C@H](CC(C)C)NC(=O)[C@H](CC(N)=O)NC(=O)[C@@H](C)NC(=O)[C@H](CCN)NC(=O)[C@H](C(C)C)NC(=O)[C@H](Cc2ccc(-c3ccccc3)cc2)NC1=O` [Compound 1100] ({CH2CO}-FYDWL[Bip]V[Dab][dA]NLVSCA-NH2; thioether N-14), the IC50 was 41.4 nM. On the same count and under the same terms, the result for `CC(C)C[C@@H]1NC(=O)[C@H](Cc2c[nH]c3ccccc23)NC(=O)[C@H](CC(=O)O)NC(=O)[C@H](Cc2ccc(O)cc2)NC(=O)[C@H](Cc2ccccc2)NC(=O)CSC[C@@H](C(=O)N[C@@H](C)C(N)=O)NC(=O)[C@H]([C@@H](C)O)NC(=O)[C@H](C(C)C)NC(=O)[C@H](CC(C)C)NC(=O)[C@H](CC(N)=O)NC(=O)[C@@H](C)NC(=O)[C@H](CCN)NC(=O)[C@H](C(C)C)NC(=O)[C@H](Cc2ccc(-c3ccccc3)cc2)NC1=O` [Compound 1101] ({CH2CO}-FYDWL[Bip]V[Dab][dA]NLVTCA-NH2; thioether N-14) reads 127 nM. The same measure, in the same setting: under `CC(C)C[C@@H]1NC(=O)[C@H](Cc2c[nH]c3ccccc23)NC(=O)[C@H](CC(=O)O)NC(=O)[C@H](Cc2ccc(O)cc2)NC(=O)[C@H](Cc2ccccc2)NC(=O)CSC[C@@H](C(=O)NCC(N)=O)NC(=O)[C@H](CO)NC(=O)[C@H](C(C)C)NC(=O)[C@H](CC(C)C)NC(=O)[C@H](CC(N)=O)NC(=O)[C@@H](C)NC(=O)[C@H](CCN)NC(=O)[C@H](C(C)C)NC(=O)[C@H](Cc2ccc(-c3ccccc3)cc2)NC1=O` [Compound 1102] ({CH2CO}-FYDWL[Bip]V[Dab][dA]NLVSCG-NH2; thioether N-14) stands 71.1 nM; under `CC(C)C[C@@H]1NC(=O)[C@H](Cc2c[nH]c3ccccc23)NC(=O)[C@H](CC(=O)O)NC(=O)[C@H](Cc2ccc(O)cc2)NC(=O)[C@H](Cc2ccccc2)NC(=O)CSC[C@@H](C(=O)NCC(N)=O)NC(=O)[C@H]([C@@H](C)O)NC(=O)[C@H](C(C)C)NC(=O)[C@H](CC(C)C)NC(=O)[C@H](CCN)NC(=O)[C@@H](C)NC(=O)[C@H](CCN)NC(=O)[C@H](C(C)C)NC(=O)[C@H](Cc2ccc(-c3ccccc3)cc2)NC1=O` [Compound 1103] ({CH2CO}-FYDWL[Bip]V[Dab][dA][Dab]LVTCG-NH2; thioether N-14), 112 nM.

On to `CC(C)C[C@@H]1NC(=O)[C@H](Cc2c[nH]c3ccccc23)NC(=O)[C@H](CC(=O)O)NC(=O)[C@H](Cc2ccc(O)cc2)NC(=O)[C@H](Cc2ccccc2)NC(=O)CSC[C@@H](C(=O)N[C@@H](C)C(N)=O)NC(=O)[C@H](CO)NC(=O)[C@H](C(C)C)NC(=O)[C@H](CC(C)C)NC(=O)[C@H](CCN)NC(=O)[C@@H](C)NC(=O)[C@H](CCN)NC(=O)[C@H](C(C)C)NC(=O)[C@H](Cc2ccc(-c3ccccc3)cc2)NC1=O` [Compound 1104] ({CH2CO}-FYDWL[Bip]V[Dab][dA][Dab]LVSCA-NH2; thioether N-14), for which the IC50 worked out at 43.6 nM.

Turning to `CC(C)C[C@@H]1NC(=O)[C@H](Cc2c[nH]c3ccccc23)NC(=O)[C@H](CC(=O)O)NC(=O)[C@H](Cc2ccc(O)cc2)NC(=O)[C@H](Cc2ccccc2)NC(=O)CSC[C@@H](C(=O)N[C@@H](C)C(N)=O)NC(=O)[C@H]([C@@H](C)O)NC(=O)[C@H](C(C)C)NC(=O)[C@H](CC(C)C)NC(=O)[C@H](CCN)NC(=O)[C@@H](C)NC(=O)[C@H](CCN)NC(=O)[C@H](C(C)C)NC(=O)[C@H](Cc2ccc(-c3ccccc3)cc2)NC1=O` [Compound 1105] ({CH2CO}-FYDWL[Bip]V[Dab][dA][Dab]LVTCA-NH2; thioether N-14), the IC50 was found to be 102 nM. On the same count and under the same terms, under `CC(C)C[C@@H]1NC(=O)[C@H](Cc2c[nH]c3ccccc23)NC(=O)[C@H](CC(=O)O)NC(=O)[C@H](Cc2ccc(O)cc2)NC(=O)[C@H](Cc2ccccc2)NC(=O)CSC[C@@H](C(=O)NCC(N)=O)NC(=O)[C@H](CO)NC(=O)[C@H](C(C)C)NC(=O)[C@H](CC(C)C)NC(=O)[C@H](CCN)NC(=O)[C@@H](C)NC(=O)[C@H](CCN)NC(=O)[C@H](C(C)C)NC(=O)[C@H](Cc2ccc(-c3ccccc3)cc2)NC1=O` [Compound 1106] ({CH2CO}-FYDWL[Bip]V[Dab][dA][Dab]LVSCG-NH2; thioether N-14) stands 66.7 nM; under `CC(C)C[C@@H]1NC(=O)[C@H](Cc2c[nH]c3ccccc23)NC(=O)[C@H](CC(=O)O)NC(=O)[C@H](Cc2ccc(O)cc2)NC(=O)[C@H](Cc2ccccc2)NC(=O)CSC[C@@H](C(=O)N[C@@H](C)C(N)=O)NC(=O)[C@H](CO)NC(=O)[C@H](C(C)C)NC(=O)[C@H](CC(C)C)NC(=O)[C@H](CC(N)=O)NC(=O)[C@@H](C)NC(=O)[C@H](CCCN)NC(=O)[C@H](C(C)C)NC(=O)[C@H](Cc2ccc(-c3ccccc3)cc2)NC1=O` [Compound 1108] ({CH2CO}-FYDWL[Bip]V[Orn][dA]NLVSCA-NH2; thioether N-14), 42.5 nM.

Source of the values: patent US20250163104A1, “MACROCYCLIC IMMUNOMODULATORS” (priority 2021, published 2025).
